Measurements published in the NIST ThermoML archive (doi:10.1016/j.fluid.2014.04.038).
Several values for one entry are separate records, joined by “and”; a condition that tells them apart may be missing. Identical values can stand only once.

Conditions: Hot wire method

CCF [fluoroethane]
Gas
Conditions | thermal conductivity [W/m/K]
327.04 K, 1095.3 kPa | 0.01963
327.1 K, 807.3 kPa | 0.01901
327.1 K, 968 kPa | 0.01947
327.18 K, 798.3 kPa | 0.01958
327.49 K, 616.5 kPa | 0.01891
327.67 K, 420.8 kPa | 0.01907
327.88 K, 999.2 kPa | 0.01944
328.12 K, 807.3 kPa | 0.01964
328.26 K, 616.5 kPa | 0.0193
328.79 K, 420.8 kPa | 0.01938
332.17 K, 969.9 kPa | 0.02009
332.31 K, 756.8 kPa | 0.01954
332.66 K, 396.8 kPa | 0.01951
332.66 K, 969.9 kPa | 0.02013
333.3 K, 756.8 kPa | 0.01971
333.74 K, 396.8 kPa | 0.01972
336.09 K, 1491 kPa | 0.02082
336.27 K, 1198.3 kPa | 0.02033
336.49 K, 1758.2 kPa | 0.02175
336.67 K, 1491 kPa | 0.02077
336.83 K, 865.8 kPa | 0.01986
336.9 K, 1198.3 kPa | 0.02068
336.91 K, 706.3 kPa | 0.01983
337.06 K, 1758.2 kPa | 0.02164
337.27 K, 1491 kPa | 0.0208
337.33 K, 480.3 kPa | 0.02
337.56 K, 1198.3 kPa | 0.02055
337.61 K, 206.2 kPa | 0.02003
337.81 K, 865.8 kPa | 0.01999
337.89 K, 706.3 kPa | 0.01991
338.08 K, 480.3 kPa | 0.01991
338.76 K, 206.2 kPa | 0.02026
345.5 K, 2260 kPa | 0.0234
345.62 K, 2008 kPa | 0.02287
345.73 K, 1253.4 kPa | 0.02123
345.76 K, 1802.5 kPa | 0.02255
345.91 K, 1001.2 kPa | 0.0213
346.04 K, 748.6 kPa | 0.02153
346.17 K, 2008 kPa | 0.02305
346.18 K, 454.4 kPa | 0.02091
346.2 K, 1802.5 kPa | 0.02205
346.23 K, 2260 kPa | 0.02334
346.43 K, 1560.1 kPa | 0.02199
346.52 K, 1253.4 kPa | 0.02134
346.59 K, 250.1 kPa | 0.02108
346.68 K, 1001.2 kPa | 0.02108
346.83 K, 454.4 kPa | 0.02085
346.87 K, 2260 kPa | 0.02339
346.91 K, 748.6 kPa | 0.02154
347.13 K, 2008 kPa | 0.02317
347.22 K, 1802.5 kPa | 0.02234
347.3 K, 250.1 kPa | 0.02135
347.67 K, 1560.1 kPa | 0.02199
347.86 K, 1253.4 kPa | 0.02137
348.08 K, 1001.2 kPa | 0.02122
348.34 K, 748.6 kPa | 0.02136
348.4 K, 250.1 kPa | 0.0215
348.67 K, 454.4 kPa | 0.02127
355.01 K, 2934.5 kPa | 0.02654
355.38 K, 2586.5 kPa | 0.02498

Liquid
Conditions | thermal conductivity
334.87 K | 0.09073 W/m/K and 0.09116 W/m/K and 0.09121 W/m/K
335.25 K | 0.09091 W/m/K and 0.09082 W/m/K
335.26 K | 0.09123 W/m/K
335.66 K | 0.09055 W/m/K and 0.09054 W/m/K
335.67 K | 0.09089 W/m/K
344.8 K | 0.08543 W/m/K
344.82 K | 0.08529 W/m/K and 0.08532 W/m/K
345.2 K | 0.08496 W/m/K
345.21 K | 0.08506 W/m/K and 0.08519 W/m/K
345.68 K | 0.08484 W/m/K
345.7 K | 0.08488 W/m/K
345.72 K | 0.08489 W/m/K
354.61 K | 0.081 W/m/K
354.62 K | 0.08121 W/m/K and 0.08127 W/m/K
354.87 K | 0.08113 W/m/K
354.88 K | 0.08093 W/m/K and 0.08129 W/m/K
354.89 K | 0.08101 W/m/K
354.97 K | 0.08115 W/m/K
354.99 K | 0.08085 W/m/K
355 K | 0.08097 W/m/K
355.29 K | 0.0807 W/m/K and 0.08094 W/m/K
355.3 K | 0.08092 W/m/K
355.37 K | 0.08104 W/m/K
355.38 K | 0.08142 W/m/K and 0.08125 W/m/K
